Data published in patent US8772230B2, “Niacin and/or trigonelline as a muscle stimulant” (DSM IP Assets B.V., priority 2009, dated 2014).
Structures can show the parent of a compound that is named as a salt. Where two headings read alike, the source gives them in different places. Marks after values point to notes of the source that are not given here.

Tests used:
Female C57B1/6 mice [1] = conditions: three weeks tail suspension
Source text: To extend our in vitro and in vivo results we were also interested in testing the effects of trigonelline during skeletal muscle unloading (atrophy conditions). Therefore we conducted a second in vivo study were the hindlimbs of the animals were unloaded to induce skeletal muscle atrophy.
Tail suspension leads to skeletal muscle atrophy in the unloaded hindlimbs of the animals.
(§1) Female C57B1/6 mice were delivered at a weight of 18-20 g and acclimatized to the facilities for a period of one week. At the beginning of the study the animals were randomized into two groups (10 animals per group).
Thereafter the groups were placed in special cages and the hindlimbs were unloaded (tail suspension) for a duration of three weeks. All mice were housed separately and had access to feed and water ad libidum. Animals were treated for three weeks by gavage with trigonelline-hydrochloride at a daily dosage of 300 mg/kg/BW and the control group received vehicle.

Female C57B1/6 mice [2] = conditions: three weeks
Source text: The gastrocnemius muscle from one hindlimb of the animals was removed to induce compensatory hypertrophy in the plantaris and soleus muscles by multiple mechanisms. This model increases the muscle weight under muscle load/training. It simulates the human condition of an average human who is physically active or an athlete to support skeletal muscle function during exercise.
as §1
The animals were anesthetized and the left hindlimb of the animals was fixed. A small incision was made through the skin over the gastrocnemius muscle. The complete gastrocnemius muscle and its tendons were exposed. Both heads of the gastrocnemius muscle were carefully dissected from the underlying intact muscles and care was taken not to rupture nerves and vessels. The skin was closed with a silk and the animals were returned separately into their cages. […] All animals received an analgesic. Animals were treated for three weeks by gavage with trigonelline-hydrochloride at a daily dosage of 300 mg/kg BW and the control group received vehicle.

Female C57B1/6 mice [3] = tested on: Female C57B1/6 mice
Description: To test the effect of trigonelline in non-trained animals, we performed a maximal endurance test after a treatment period of three weeks.
Female C57B1/6 mice were delivered at a weight of 18-20 g and acclimatized to the facilities for a period of one week. At the beginning of the study the animals were randomized into two groups (10 animals per group). All mice were housed separately and had access to feed and water ad libidum. Animals were treated for three weeks by gavage with trigonelline-hydrochloride at a daily dosage of 300 mg/kg/BW and the control group received vehicle.
For acclimatization, animals were placed on the treadmill for 5 minutes after two weeks. The maximal endurance test was performed two day before the section of the animals.

[4] = tested on: C2C12 mouse myoblast cells; conditions: 10 μg/ml trigonelline monohydrate, 24 h, vs DMSO control
Description: C2C12 cells were seeded on 96 well collagen-I plates (1600 cells/well) in growth medium (Dulbecco's modified Eagle's medium (DMEM) supplemented with 10% FBS, 2 mM L-Glutamine, 1 mM pyruvate, 50 IU/ml penicillin, 50 ug/ml streptavidin) until it reaches 100% confluency, approximately 3 days. […] Final DMSO concentration was standardized to 0.5% in all wells. Cells were cultured at 37° C., with 5% CO2.
Cells were fixed with 3.7% formaldehyde solution (37% formaldehyde diluted in growth medium, sterile filtered before used) for 10 min. at room temperature, and washed twice with 1×DPBS (1× Dulbecco's Phosphate Buffered Saline). After permeabilization with 0.1% TritonX-100 (diluted in 1×DPBS) for 2 min. the samples were blocked with 1×DPBS plus 2% BSA for 1 h. For myocyte labelling, the cells were labelled with 1:20 anti-alpha-myosin heavy chain antibody (MF-20) for 1 hour. The samples were washed with 1×DPBS and fluorescently labelled with secondary antibody (1:250 Alexa 488 IgG antimouse secondary antibody plus 1:2000 Hoechst in 1×DPBS) for 1 h. Finally, the cells were washed twice with 1×DPBS and plates were sealed for imaging on the ArrayScan® HCS Reader.
For image analysis myosin labelled myotubes were quantified on the ArrayScan HCS Reader using BioApplication Morphology Explorer.V2. Myocytes were selected with Object Area larger than 500 and Object Total Intensity greater than 1000.

[5] = 300 mg/kg/BW daily by gavage, computer tomography
[6] = 300 mg/kg BW daily by gavage, computer tomography
[7] = 300 mg/kg BW daily by gavage, non-operated leg
[8] = 300 mg/kg/BW daily by gavage, three weeks, untrained mice

In the case of C[n+]1cccc(C(=O)[O-])c1 [Trigonelline-hydrochloride, trigonelline-hydrochloride], the “Gastrocnemius-Plantaris-Soleus muscle weight (whole leg)/body weight” value (Female C57B1/6 mice [1]; 300 mg/kg/BW daily by gavage) is reported as 4.89* mg/g, the “M. gastrocnemius wet weight” value (Female C57B1/6 mice [1]; 300 mg/kg/BW daily by gavage) is reported as 86.01* mg and the “M. gastrocnemius wet weight/body weight” value (Female C57B1/6 mice [1]; 300 mg/kg/BW daily by gavage) is reported as 4.16* mg/g. For the same compound, the “M. plantaris wet weight” value (Female C57B1/6 mice [1]; 300 mg/kg/BW daily by gavage) was 10.53 mg, the “M. plantaris wet weight/body weight” value (Female C57B1/6 mice [1]; 300 mg/kg/BW daily by gavage) was 0.51* mg/g and the “M. soleus wet weight” value (Female C57B1/6 mice [1]; 300 mg/kg/BW daily by gavage) was 4.62 mg. For the same compound, the “M. soleus wet weight/body weight” value (Female C57B1/6 mice [1]; 300 mg/kg/BW daily by gavage) was 0.22 mg/g, the Muscle cross-sectional area (Female C57B1/6 mice [1]; [5]) was 27.8 mm^2 and the “Total leg cross-sectional area” value (Female C57B1/6 mice [1]; [5]) was 30.4 mm^2. The “increase of wet weight of the gastrocnemius muscle (relative to the body weight)” value (Female C57B1/6 mice [1]; trigonelline-hydrochloride 300 mg/kg/BW daily, vs control (FIG. 3), statistically significant) was 9%, the “Muscle cross-sectional area - non operated leg” value (Female C57B1/6 mice [2]; [6]) was 32.15 mm^2 and the “Muscle cross-sectional area - operated leg” value (Female C57B1/6 mice [2]; [6]) was 23.72 mm^2. For the same compound, the “Total leg cross-sectional area - non operated leg” value (Female C57B1/6 mice [2]; [6]) was 35.05 mm^2, the “Total leg cross-sectional area - operated leg” value (Female C57B1/6 mice [2]; [6]) was 26.79 mm^2 and the “Gastrocnemius-Plantaris-Soleus muscle weight (whole leg)/body weight (non-operated leg)” value (Female C57B1/6 mice [2]; [7]) was 5.50 mg/g. For the same compound, the “M. gastrocnemius wet weight (non-operated leg)” value (Female C57B1/6 mice [2]; [7]) was 99.3 mg, the “M. gastrocnemius wet weight/body weight (non-operated leg)” value (Female C57B1/6 mice [2]; [7]) was 4.57 mg/g and the “M. plantaris wet weight (non-operated leg)” value (Female C57B1/6 mice [2]; [7]) was 13 mg. The “M. plantaris wet weight/body weight (non-operated leg)” value (Female C57B1/6 mice [2]; [7]) was 0.60 mg/g, the “M. soleus wet weight (non-operated leg)” value (Female C57B1/6 mice [2]; [7]) was 7.2 mg and the “M. soleus wet weight/body weight (non-operated leg)” value (Female C57B1/6 mice [2]; [7]) was 0.33 mg/g. For the same compound, the “Gastrocnemius-Plantaris-Soleus muscle weight (whole leg)/body weight” value (Female C57B1/6 mice [3]; [8]) was 5.41 mg/g, the “M. gastrocnemius wet weight” value (Female C57B1/6 mice [3]; [8]) was 100.66 mg and the “M. gastrocnemius wet weight/body weight” value (Female C57B1/6 mice [3]; [8]) was 4.57 mg/g. The “M. plantaris wet weight” value (Female C57B1/6 mice [3]; [8]) was 12.12 mg, the “M. plantaris wet weight/body weight” value (Female C57B1/6 mice [3]; [8]) was 0.55 mg/g and the “M. soleus wet weight” value (Female C57B1/6 mice [3]; [8]) was 6.29 mg. For the same compound, the “M. soleus wet weight/body weight” value (Female C57B1/6 mice [3]; [8]) was 0.29 mg/g and the Mean running time (Female C57B1/6 mice [3]; 300 mg/kg/BW daily by gavage, three weeks, untrained mice, treadmill) was 38.70 min.

For C[n+]1cccc(C(=O)[O-])c1 [Trigonelline], the “increase of wet weight of the non-operated gastrocnemius muscle (relative to the body weight)” value (Female C57B1/6 mice [2]; trigonelline-hydrochloride 300 mg/kg BW daily, vs control (FIG. 2)) was 7%, the “wet weight of the gastrocnemius muscle vs control (in words)” value (Female C57B1/6 mice [3]; three weeks treatment, untrained mice (FIG. 4)) was “equal in both groups” and the “increase of differentiation in C2C12 mouse myoblast cells (number of myocytes)” value [4] was 36%.
